The test system of data set [1] is PAF-Induced Human Platelet Aggregation. The experiment in a line: PAF-induced human platelet aggregation assay (in vitro PAF antagonism). The class given is cell-based. The settings on record: for IC50: human platelet-rich plasma, 37° C., 2 min preincubation, PAF 1-5×10^-8 M, 0.1% DMSO, read-out: IC50 (PAF activity, inhibition of PAF-induced human platelet aggregation). As for the experimental part: Preparation of Platelet-Rich Plasma (PRP): Human blood (50 ml) is collected from healthy male donors. The blood is mixed with an anticoagulant solution (5 ml) containing sodium citrate (3.8%) and dextrose (2%). Blood is centrifuged at 200×g for 20 min. and the supernatant PRP is carefully transferred into a polypropylene tube. Platelet-poor-plasma (PPP) is prepared by centrifuging PRP at 800×g for 15 min. in a Beckman Microfuge B. PRP is used within 3 hours of drawing the blood.
Platelet Aggregation Assay: When an aggregating agent such as PAF is added to PRP, platelets aggregate. An aggregometer quantifies this aggregation by measuring light (infra-red) transmission through PRP and comparing it to transmission through PPP. The aggregation assays are performed using a dual-channel aggregometer (Model 440, Chrono-Log Corp., Havertown, Pa.). PRP (0.45 ml) in aggregometer curettes is continually stirred (37° C.). Solutions of test compounds in DMSO or vehicle alone (final concentration of DMSO=0.1% v/v) are added to the PRP, and, after incubation for 2 min., 10- 15 μl aliquots of PAF solution are added so as to achieve a final concentration of 1-5×10^-8 M. Incubations are continued until the increase in light transmission reaches a maximum (usually about 2 min). Values for inhibition are calculated by comparing maximal aggregation obtained in the absence and the presence of the compound. […]

The nature of data set [2]: Solubility. The class given is physicochemical.
Data set [3] relates to PAF. Particulars: disclosed in JP 03,216,197; cited from earlier work.

The values below come from patent publication US5338758A (Schering Corporation, priority 1992, dated 1994).

As a reminder, the IC50 is the concentration that inhibits the measured activity by half. Turning to `C/C1=C\CCC2(C)O[C@H]2C(=O)C2=CC[C@H](C)[C@@](C)(CC1)[C@@H]2C=O` (relative stereo) [Compound I], in data set [1], the “PAF antagonistic properties (in words)” value was “antagonistic properties” and the half-inhibitory concentration (IC50) turned out to be 6960 nM. Also, in data set [2], the solubility in acetone entry is on record as “partially soluble”, the solubility in chloroform result is on record as “soluble”, the solubility in dichloromethane result is listed as “soluble” and the “solubility in dimethyl sulfoxide” value was “soluble”. In data set [2], the “solubility in ethyl acetate” value is on record as “partially soluble”, the solubility in hexane entry was “insoluble”, the solubility in methanol entry was “partially soluble” and the “solubility in petroleum ether” value is “insoluble”. In data set [2], the solubility in water result is recorded as “insoluble”.

As for `CC1=CCC2=CCC(C)C(C)(CCC(C)=CCC1)C2C` (centres unmarked) [Compound IV], in data set [1], the “PAF antagonistic properties (in words)” value is “antagonistic properties” and the IC50 was greater than 36000 nM. In data set [2], the solubility in acetone result is listed as “soluble”, the solubility in chloroform entry is reported as “soluble”, the solubility in dichloromethane result is listed as “soluble” and the “solubility in dimethyl sulfoxide” value was “partially soluble”. In addition, in data set [2], the “solubility in ethyl acetate” value was “partially soluble”, the solubility in hexane entry is “partially soluble”, the solubility in methanol entry is recorded as “partially soluble” and the solubility in water result is “insoluble”.

With `CC1=CCCC2(C)OC2C2(O)OCC3=C2C(O)CC(C)C3(C)CC1` (centres unmarked) [III], in data set [1], the “PAF antagonistic properties (in words)” value is given as “antagonistic properties” and the IC50 turned out to be 1260 nM. For the same compound, in data set [2], the solubility in acetone entry is recorded as “partially soluble”, the solubility in chloroform entry is given as “soluble”, the solubility in dichloromethane result is reported as “soluble” and the “solubility in dimethyl sulfoxide” value is “soluble”. Besides, in data set [2], the “solubility in ethyl acetate” value was “partially soluble”, the solubility in hexane entry is on record as “insoluble”, the solubility in methanol result was “partially soluble” and the “solubility in petroleum ether” value was “insoluble”. Besides, the solubility in water entry in data set [2] is listed as “insoluble”.

For `CC1=CCCC2(C)OC2C2(O)OCC3C2=C(O)CC(C)C3(C)CC1` (centres unmarked) [II], in data set [1], the “PAF antagonistic properties (in words)” value is recorded as “antagonistic properties” and the half-inhibitory concentration (IC50) stood at 1680 nM. In data set [2], the solubility in acetone result is on record as “partially soluble”, the solubility in chloroform entry was “soluble”, the solubility in dichloromethane result is “soluble” and the “solubility in dimethyl sulfoxide” value is “soluble”. Moreover, in data set [2], the “solubility in ethyl acetate” value is “partially soluble”, the solubility in hexane entry is recorded as “insoluble”, the solubility in methanol entry is listed as “partially soluble” and the “solubility in petroleum ether” value is recorded as “insoluble”. Moreover, in data set [2], the solubility in water entry is given as “insoluble”.

With `CC1=CCCC2(C)OC2C(=O)C2=CC(O)C(C)C(C)(CC1)C2(C)O` (centres unmarked) [Phomactin B, phomactin B], in data set [3], the “PAF antagonist activity (in words)” value was “PAF antagonist”.
